From US20120122848A1, “(+)-3-HYDROXYMORPHINAN DERIVATIVES AS NEUROPROTECTANTS” (GREEN CROSS CORPORATION, priority 2009, published 2012)
pEC50: −log10 of the molar value. Counter-ions that a name gives are not always drawn.

How the values were obtained:
[1] = test system: dopamine (DA) neurons in substantia nigra pars compacta; details: MPTP model, daily injections; cited from earlier work
[2] = Cell cytotoxicity test: protection of HT22 cells against glutamate toxicity (EC50) and cytotoxicity of the compounds (CC50), MTT; format: cell-based, mouse; details: mouse, HT22 cells (mouse hippocampal neuron)
Procedure, shortened: (§1)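 Cells plated 16 hrs, then exposed to 5 mM glutamate plus a compound concentration series for 24 hrs in DMEM with 10% FBS. Viability by MTT (4 hrs), absorbance at 450 nm; EC50 is protection against glutamate toxicity, CC50 is compound cytotoxicity.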

[3] = test system: HT22 cells (mouse hippocampal neuron); assay: as above; format: cell-based; details: Mus musculus, HT-22, five millimolar glutamate, 24 hrs, read-out: EC50 (neuroprotective effect against glutamate toxicity)
Procedure, shortened: as §1

[4] = Total antioxidant activity assay (TEAC; metmyoglobin, 2,2′-azinobis(3-ethylbenzoline 6-sulfonate), H2O2)
Procedure: Briefly, 1 ml of reaction mixture including 2.5 μM metmyoglobin, 150 μM 2,2′-azinobis(3-ethylbenzoline 6-sulfonate), 75 μM H2O2, and 0.84% sample or Trolox (for standard) in PBS was incubated for 7.5 min at 30° C.; then the absorbance at 734 nm was measured. The data are normalized to 1 mM Trolox (TEAC activity) [Kumiko I. et al., The Activation of Dopamine D4 Receptors Inhibits Oxidative Stress-Induced Nerve Cell Death., J. Neurosci., 2001]. The EC50 values were analyzed statistically using Prizm® (GraphPad Software Inc., San Diego, Calif., USA).

HT22 cells = assay: ROS measurement using DCFDA in glutamate-treated HT22 cells; format: cell-based; details: Mus musculus, HT-22, 5 mM glutamate, 8 hrs
Procedure: HT22 cells (1×10^4) plated in a 96-well plate were treated with 5 mM glutamate in the absence or presence of 3-HM.HBr or the compound of Example 26, and incubated for 8 hrs. After washing with PBS, cells were stained with 10 μM 2,7-dichlorodihydrofluorescein diacetate (DCFDA) in HBSS (Hank's balanced salt solution, Gibco) for 30 min in the dark. Then the cells were washed with PBS twice and extracted with 1% Triton X-100 in PBS for 10 min at 37° C. Fluorescence was recorded with the excitation wavelength of 490 nm and the emission wavelength of 525 nm (Infinite M200, TECAN) [Da-Qing, et. al., Anti-oxidant and anti-inflammatory activities of macelignan in murine hippocampal cell line and primary culture of rat microglia cells, BBRC, 2005, 331, 1264-1269]. The EC50 values were analyzed statistically using Prizm® (GraphPad Software Inc., San Diego, Calif., USA).

SirT1 [5] = assay: RT-PCR analysis of target gene expression under glutamate toxicity in HT22 cells; format: cell-based, mouse; details: 10 mM glutamate, 18 hrs
Procedure: HT22 cells (1.5×10^7) plated in a 100 mm dish were treated with 10 mM glutamate in the absence or presence of 3-HM.HBr or the compound of Example 26 and incubated for 18 hrs. Oligonucleotide primers used for the PCR amplification were DJ-1 (PARK7), LRRK2 (Leucine-rich repeat kinase 2), PINK1 (PTEN induced putative kinase 1), SirT1 (silent mating type information regulation 2 homolog 1 (S. cerevisiae)), SirT2 (silent mating type information regulation 2 homolog 2 (S. cerevisiae)), and others. PCR products were electrophoresed on 2% agarose gels and detected by ethidium bromide [Kumiko I. et al., The Activation of Dopamine D4 Receptors Inhibits Oxidative Stress-Induced Nerve Cell Death., J. Neurosci., 2001].
FIG. 2A and FIG. 2B show the results of reverse transcription polymerase chain reaction.
In FIG. 2A, Lane 1 is mock, Lane 2 is the group treated with 10 mM Glutamate, and Lane 3 is the group treated with 10 mM Glutamate and 100 uM 3-HM.HBr. […]

SirT1 [6] = assay: Western blotting analysis of SirT1 in glutamate-treated HT22 cells; format: cell-based, mouse; details: 10 mM glutamate, 18 hrs
Procedure: HT22 cells (1.5×10^7) plated in a 100 mm dish were treated with 10 mM glutamate in the absence or presence of 3-HM.HBr or the compound of Example 26, and incubated for 18 hrs. The cells were collected by scraping in a sample buffer (3% SDS, 1% glycerol, 0.5% 2-mercaptoethanol, 0.05% bromophenol blue, and 80 mM Tris-HCl buffer, pH 6.8, with complete protease inhibitors). The resulting suspention was centrifuged and the pellets thus obtained were re-suspended in the sample buffer. The samples were heated for 3 min in boiling water, fractionated on 4-20% polyacrylamide gels, and electroblotted onto membranes. SirT1 affinity purified polyclonal antibody was used as the primary antibody. Immunoreactive bands were detected with the ECL (Amersham Pharmacia Biotech, Arlington Heights, Ill.) Western blotting detection reagents [Kumiko, I. et al., The Activation of Dopamine D4 Receptors Inhibits Oxidative Stress-Induced Nerve Cell Death., J. Neurosci., 2001, 21(16):6069-6076]. […]

Structure (SMILES) | DA levels in striatum [1] | protection of DA neurons in substantia nigra pars compacta [1] | CC50 at 24 h [2] [µM] | pEC50 [3] | inhibition (total antioxidant activity) ([4]; at 100 μM) [%] | pEC50 (HT22 cells) | SirT1 expression levels (RT-PCR) (SirT1 [5]) | SirT1 expression (Western blotting) (SirT1 [6]) | pEC50 ([4]; 7.5 min at 30° C., absorbance at 734 nm)
Oc1ccc2c(c1)[C@]13CCCC[C@@H]1[C@H](C2)NCC3 [(+)-3-HM, (+)-3-Hydroxymorphinan] | DA levels in striatum has been restored | dopamine (DA) neurons in substantia nigra pars compacta have been protected | – | – | – | – | – | – | –
Oc1ccc2c(c1)[C@]13CCCC[C@@H]1[C@H](C2)NCC3 [3-HM•HBr, (+)-3-hydroxymorphinan HBr, reference compound] | – | – | > 100 | 4.50 | 22.4 | 4.41 | decreased SirT1 expression levels were elevated | this decreasing was protected | –
Oc1ccc(Nc2cc3c(cc2O)[C@]24CCCC[C@@H]2[C@H](C3)NCC4)cc1 [Example 26, (+)-3-Hydroxy-2-(4-hydroxyphenylamino)morphinan TFA salt] | – | – | 2.31 | 8.34 | – | 5.51 | decreased SirT1 expression levels were elevated | this decreasing was protected | 4.49
